# Tests used:
# HNSCC cell lines = assay: Sensitivity of HNSCC cell lines to EGFR-TKi after silencing EPLIN; type: cell-based; settings: siRNA silencing of EPLIN; FIG. 6C
# HNSCC patient samples = assay: Cancer drug sensitivity testing on nonselected HNSCC patient samples (Misvik Oy); type: cell-based; settings: for drug sensitivity: EPLIN positive HNSCC, more than 160 cancer drugs tested, all results not shown
# From the text: Our proof-of-concept study featured testing the sensitivity of more than 160 cancer drugs on nonselected HNSCC patient samples using an internationally validated method (Misvik Oy, Turku, Finland).
SMILES,sensitivity of HNSCC cells to the drug on silencing EPLIN expression (HNSCC cell lines),drug sensitivity (HNSCC patient samples),effect relative to the other tested EGFR-TKis (HNSCC cell lines),"function as precision therapy (HNSCC patient samples; several EPLIN positive HNSCC patients, FIG. 7A)"
CNC(=O)CN1CCC(Oc2cc3c(Nc4cccc(Cl)c4F)ncnc3cc2OC)CC1 [AZD8931],decreases sensitivity,–,–,–
C=CC(=O)Nc1cc(Nc2nccc(-c3cn(C)c4ccccc34)n2)c(OC)cc1N(C)CCN(C)C [AZD9291],decreases sensitivity,–,–,–
C=CC(=O)Nc1cc2c(Nc3ccc(F)c(Cl)c3)ncnc2cc1OCCCN1CCOCC1 [Canertinib],–,highest sensitivity,–,–
C#Cc1cccc(Nc2ncnc3cc(OCCOC)c(OCCOC)cc23)c1 [Erlotinib],decreases sensitivity,highest sensitivity,best result,proven to function as precision therapy
COc1cc2ncnc(Nc3ccc(F)c(Cl)c3)c2cc1OCCCN1CCOCC1 [Gefitinib],–,highest sensitivity,–,–
CCOc1cc2ncc(C#N)c(Nc3ccc(OCc4ccccn4)c(Cl)c3)c2cc1NC(=O)/C=C/CN(C)C [Neratinib],decreases sensitivity,–,–,–
